Results reported in patent EP3917907B1, “MODULATORS OF POTASSIUM ION CHANNELS AND USES THEREOF” (Universitá Degli Studi Di Salerno, priority 2019, dated 2020).

Tests used:
[1] = Photostability (HPLC, solar simulator irradiation); type: physicochemical; details: for Photostability: percentage of degradation after 6 h irradiation with solar simulator, 100 ppm in extracellular solution pH 7.4
Summary of the method: (§1)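 Analyte diluted from 1 mg/mL DMSO stock to 100 ppm in extracellular buffer (NaCl, CaCl2, KCl, MgCl2, glucose, HEPES, pH 7.4) and either kept at ambient temperature or irradiated with a solar simulator, each for 6 h. C18 RP-HPLC (40°C) peak areas at 0 and 6 h give % degradation = (Pa0−Pa6)/Pa0 ×100.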

Kv7.2/7.3 = target: T1, Kv7.2/7.3 (Homo sapiens, UniProt O43525+O43526); assay: Whole-cell patch-clamp on CHO cells co-expressing Kv7.2 and Kv7.3; type: cell-based; details: for EC50: Kv7.2/7.3, shift in ramp-voltage (ΔV) at 20% of maximal current, 0.01-10 µM; for potency relative to retigabine in increasing Kv7.2/3 currents: from EC50 values of Table 2
T1 construct: expressed in transfected cells; host or cells: CHO cells (ATCC CRL-9618), transient co-transfection, pcDNA3.1(+)
Description: (§2) According to the experimental protocol, these plasmids were expressed individually or in combination (in particular of Kv7.2 and Kv7.3), together with a plasmid-expressing enhanced green fluorescent protein (Clontech, Palo Alto, CA) used as a transfection marker. Total cDNA in the transfection mixture was kept at 4 µg. CHO cells were grown in 100-mm plastic Petri dishes in Dulbecco's modified Eagle's medium containing 10% fetal bovine serum, nonessential amino acids (0.1 mM), penicillin (50 U/ml), and streptomycin ([…]) in a humidified atmosphere at 37°C with 5% CO2. The cells were plated on glass coverslips coated with poly-L-lysine, and transfected one day after plating with the appropriate cDNA using Lipofectamine 2000 (Life Technologies), according to the manufacturer's protocol.
(§3) Currents from CHO cells were recorded at room temperature (20-22°C) 24 hours after trasfection using the whole-cell configuration of the patch-clamp technique, with glass micropipettes of 3-5 MΩ resistance. During the recording, constant perfusion of extracellular solution was maintained. The extracellular solution contained (in mM): 138 NaCl, 2 CaCl2, 5.4 KCl, 1 MgCl2, 10 glucose, and 10 HEPES, at pH 7.4, adjusted with NaOH. The pipette (intracellular) solution contained (in mM): 140 KCl, 2 MgCl2, 10 EGTA, 10 HEPES, 5 Mg^2+-ATP, at pH 7.3-7.4, adjusted with KOH. Currents were recorded using an Axopatch-200A amplifier, filtered at 5 kHz, and digitized using a DigiData 1440A (Molecular Devices). The pCLAMP software (version 10.2, Molecular Devices) was used for data acquisition and analysis. To evaluate the activity of exemplary compounds on Kv7.2 (see Table 1), as well as on Kv7.1, Kv7.2/7.3, Kv7.3 and Kv7.4 channels for selected compounds (see Table 2), the cells were clamped at -80 mV and currents were elicited by 3-s voltage ramps from -80 mV to +20 mV in the presence and absence of each compound. […] The effects of drugs were expressed as shift in the ramp-voltage (ΔV) calculated at 20% of the maximal current (Miceli et al, Proc Natl Acad Sci U S A. 2013, 110(11):4386-91). Curves were fitted using the following equation: y=max/(1+x/EC50)n, where x is the drug concentration, n is the Hill coefficient and max is the maximal value achieved, as previously described (Ambrosino et al, Br J Pharmacol. 2013, 168(6):1430-1444). Data analysis and fit were performed using Sigmaplot (version 12.3).

Kv7.1 = target: T2, Kv7.1 (Homo sapiens, UniProt P51787); assay: Whole-cell patch-clamp on CHO cells transiently expressing Kv7.1; type: cell-based; details: shift in ramp-voltage (ΔV) at 20% of maximal current, 0.01-10 µM
T2 construct: expressed in transfected cells; host or cells: CHO cells (ATCC CRL-9618), transient transfection, pcDNA3.1(+)
Description: as §2
as §3, with “Curves were fitted using the following equation: y=max/(1+x/EC50)n, where x is the drug concentration, n is the Hill coefficient and max is the maximal value achieved, as previously described (Ambrosino et al, Br J Pharmacol. 2013, 168(6):1430-1444). Data analysis and fit were performed using Sigmaplot (version 12.3).” left out

Kv7.4 = target: T3, Kv7.4 (Homo sapiens, UniProt P56696); assay: Whole-cell patch-clamp on CHO cells transiently expressing Kv7.4; type: cell-based; details: shift in ramp-voltage (ΔV) at 20% of maximal current, 0.01-10 µM
T3 construct: expressed in transfected cells; host or cells: CHO cells (ATCC CRL-9618), transient transfection, pcDNA3.1(+)
Description: as §2
(§4) Currents from CHO cells were recorded at room temperature (20-22°C) 24 hours after trasfection using the whole-cell configuration of the patch-clamp technique, with glass micropipettes of 3-5 MΩ resistance. During the recording, constant perfusion of extracellular solution was maintained. […] Currents were recorded using an Axopatch-200A amplifier, filtered at 5 kHz, and digitized using a DigiData 1440A (Molecular Devices). […] The effects of drugs were expressed as shift in the ramp-voltage (ΔV) calculated at 20% of the maximal current (Miceli et al, Proc Natl Acad Sci U S A. 2013, 110(11):4386-91). […]

[2] = Solution stability (HPLC, extracellular solution, ambient temperature); type: physicochemical; details: percentage of degradation after 6 h at ambient temperature; 100 ppm in extracellular solution pH 7.4
Summary of the method: as §1

Kv7.3 = target: T4, Kv7.3 (Homo sapiens, UniProt O43525); assay: Whole-cell patch-clamp on CHO cells transiently expressing Kv7.3; type: cell-based; details: shift in ramp-voltage (ΔV) at 20% of maximal current, 0.01-10 µM
T4 construct: expressed in transfected cells; host or cells: CHO cells (ATCC CRL-9618), transient transfection, pcDNA3.1(+)
Description: as §2, §4

Kv7.2 W236L = target: T5, Kv7.2 W236L (Homo sapiens, UniProt O43526, W236L); assay: Whole-cell patch-clamp on CHO cells expressing Kv7.2 W236L mutant channels; type: cell-based; details: 10 µM
T5 construct: expressed in transfected cells; host or cells: CHO cells (ATCC CRL-9618), transient transfection, pcDNA3.1(+)
Description: as §2, §4

Kv7.2 [3] = target: T6, Kv7.2 (Homo sapiens, UniProt O43526); assay: Whole-cell patch-clamp on CHO cells transiently expressing Kv7.2; type: cell-based; details: for EC50: Kv7.2, shift in ramp-voltage (ΔV) at 20% of maximal current, 0.01-10 µM; for Idrug/Ictl at 0 mV: ratio of ramp-evoked Kv7.2 current amplitude in presence and absence of drug at 0 mV; for Idrug/Ictl at 0 mV / Idrug/Ictl at -40 mV: CHO cells, mean±SEM, >1 activating, <1 inhibiting; for Idrug/Ictl at -40 mV: ratio of ramp-evoked Kv7.2 current amplitude in presence and absence of drug at -40 mV
T6 construct: expressed in transfected cells; host or cells: CHO cells (ATCC CRL-9618), transient transfection, pcDNA3.1(+)

Kv7.2 [4] = assay: as above; type: cell-based, human; details: ratio of EC50 values Kv7.3/Kv7.2
[5] = cited from earlier work

CCCCCCC(=O)Nc1ccc2c(ccn2Cc2ccc(C(F)(F)F)cc2)c1 [N-(1-(4-(trifluoromethyl)benzyl)-1H-indol-5-yl)heptanamide]
Photostability [1]: A (degradation lower than 20%) | EC50 (Kv7.2/7.3): 0.21 ± 0.14 µM | potency relative to retigabine in increasing Kv7.2/3 currents (Kv7.2/7.3): eight times more potent than retigabine | EC50 (Kv7.1): Inactive | EC50 (Kv7.4): 0.1 ± 0.02 µM | Solution stability [2]: A (degradation lower than 20%) | EC50 (Kv7.3): 10.5 ± 6 µM | ratio between current amplitude in the presence and absence of the drug at -40 mV (Kv7.2 W236L): 1.3±0.3 | EC50 (Kv7.2 [3]): 0.08 ± 0.04 µM | Idrug/Ictl at 0 mV (Kv7.2 [3]): 3.24±0.18 | Idrug/Ictl at -40 mV (Kv7.2 [3]): 9.34±0.82 | potency in activating Kv7.2 compared to Kv7.3 homomers (Kv7.2 [4]): about 130 fold

CCCCCCC(=O)Nc1ccc(NCc2ccc(OC(F)(F)F)cc2)cc1N [N-(2-amino-4-((4-(trifluoromethoxy)benzyl)amino)phenyl)heptanamide]
Photostability [1]: B (20%< degradation<40%) | Solution stability [2]: A (degradation lower than 20%) | Idrug/Ictl at 0 mV (Kv7.2 [3]): 2.05±0.56 | Idrug/Ictl at -40 mV (Kv7.2 [3]): 12.4±2.05

Nc1cc(NCc2ccc(C(F)(F)F)cc2)ccc1NS(=O)(=O)C1CCCCC1 [N-(2-amino-4-((4-(trifluoromethyl)benzyl)amino)phenyl)cyclohexanesulfonamide]
Photostability [1]: C (degradation > 40%) | Solution stability [2]: C (degradation > 40%) | Idrug/Ictl at 0 mV (Kv7.2 [3]): 0.19±0.1 | Idrug/Ictl at -40 mV (Kv7.2 [3]): 1.5±0.2

CCCCCCC(=O)Nc1ccc(NCc2ccc(C(F)(F)F)cc2)cc1N [N-(2-amino-4-((4-(trifluoromethyl)benzyl)amino)phenyl)heptanamide]
Photostability [1]: B (20%< degradation<40%) | EC50 (Kv7.2/7.3): 0.2 ± 0.1 µM | potency relative to retigabine in increasing Kv7.2/3 currents (Kv7.2/7.3): eight times more potent than retigabine | EC50 (Kv7.1): Inactive | Solution stability [2]: A (degradation lower than 20%) | Idrug/Ictl at 0 mV (Kv7.2 [3]): 2.55±0.56 | Idrug/Ictl at -40 mV (Kv7.2 [3]): 16.90±3.33

CCCCCCC(=O)Nc1ccc(NCc2ccc(F)cc2)c(F)c1 [N-(3-fluoro-4-((4-fluorobenzyl)amino)phenyl)heptanamide]
Photostability [1]: A (degradation lower than 20%) | Solution stability [2]: A (degradation lower than 20%) | Idrug/Ictl at 0 mV (Kv7.2 [3]): 3.30±0.40 | Idrug/Ictl at -40 mV (Kv7.2 [3]): 8.85±1.17

CCOC(=O)Nc1ccc(NCc2ccc(F)cc2)cc1N [Retigabine, reference compound]
drug degraded after exposure to light ([1]; after 6 hours of exposure to light): > 40% | Photostability [1]: C (degradation > 40%) | EC50 (Kv7.2/7.3): 1.72 ± 0.41 µM | EC50 (Kv7.1): Inactive | EC50 (Kv7.4): 1.98 ± 0.84 µM | Solution stability [2]: A (degradation lower than 20%) | EC50 (Kv7.3): 3.9 ± 1.7 µM | ratio between current amplitude in the presence and absence of the drug at -40 mV (Kv7.2 W236L): 1.2±0.1 | EC50 (Kv7.2 [3]): 0.93 ± 0.43 µM | Idrug/Ictl at 0 mV (Kv7.2 [3]): 1.95±0.12 | Idrug/Ictl at -40 mV (Kv7.2 [3]): 6.20±1.03 | potency in activating Kv7.2 compared to Kv7.3 homomers (Kv7.2 [4]): 4 fold | fast absorption after oral administration (time after administration) [5]: 1.5 to 2.0 h

CCOC(=O)Nc1ccc2c(c1)CCN2Cc1ccc(F)cc1 [ethyl (1-(4-fluorobenzyl)indolin-5-yl)carbamate]
Photostability [1]: C (degradation > 40%) | Solution stability [2]: A (degradation lower than 20%) | Idrug/Ictl at 0 mV (Kv7.2 [3]): 1.26±0.13 | Idrug/Ictl at -40 mV (Kv7.2 [3]): 2.01±0.58
